Experiment: Solubility in organic solvents
Type: physicochemical
Conditions: 20 °C, organic solvent or mixture, thermodynamic from solid; about 20 to about 25° C.; solvent not given
Experimental: In all studies, excess solid of the compound was allowed to equilibrate for at least 12 hours while stirring.

solubility: ~164 mg/mL
Compound: COCCOc1cnc2ccn([C@H](C)c3nnc4c(F)cc(-c5cnn(C)c5)cn34)c(=O)c2c1 [DMSO hemisolvate form of Compound M, 6-{(1R)-1-[8-fluoro-6-(1-methyl-1H-pyrazol-4-yl)[1,2,4]triazolo[4,3-a]pyridin-3-yl]ethyl}-3-(2-methoxyethoxy)-1,6-naphthyridin-5(6H)-one]
